The text below walks through data of paper PMC12133982, “Predominant T-cell epitopes of SARS-CoV-2 restricted by multiple prevalent HLA-B and HLA-C allotypes in Northeast Asia” (Frontiers in Immunology, 2025).

Peptide text beside a SMILES is read from it.

One assay deals with HLA-B1502 (Homo sapiens, UniProt P01889, A329T/A93T/A95T/C349S/D201E/D98Y/E187L/E204Q/E69M/E70A/H137Y/K202T/L119I/Q94N/R155S/R180L/S121R/S35A/S48A/T118I/V306I/V36M/Y140S/Y91S). The experiment in a line: Competitive peptide binding assay, CIR-B1502. The note with it: HMy2.CIR-B1502 cells, reference Cy5-[…], class from inhibition at 5 and 15 μM, flow cytometry MFI; read-out: Binding affinity with HLA-B1502. As to the method:
(§1) Then, competitive peptide binding assays were performed.

In the next assay the target is HLA-B1301 (Homo sapiens, UniProt P01889, A65T/A93T/A95T/D138N/D201E/D98Y/E176V/E204Q/E69M/E70A/G107R/K202T/L105A/L119I/N104T/N87E/Q94N/R106L/R155S/R169L/R180L/S101N/S121R/S35A/S48T/T118I/V127L/V36M/Y140L/Y91S). The experiment in a line: Competitive peptide binding assay, CIR-B1301. The note with it: HMy2.CIR-B1301 cells, reference Cy5-[…], class from inhibition at 5 and 15 μM, flow cytometry MFI; read-out: Binding affinity with HLA-B1301. How it is done:
as §1
Background: Flow cytometry measures light scatter and fluorescence of single cells or particles in a stream.

In the next assay the target is HLA-B1302 (Homo sapiens, UniProt P01889, A65T/A93T/A95T/D138N/D201E/D98Y/E176V/E204Q/E69M/E70A/G107R/K202T/L105A/L119W/N104T/N87E/Q94N/R106L/R155S/R169L/R180L/S101N/S121T/S35A/S48T/V127L/V36M/Y140L/Y91S). Nature of the assay: Competitive peptide binding assay, CIR-B1302. The note with it: HMy2.CIR-B1302 cells, reference Cy5-MMWYWGPSL, class from inhibition at 5 and 15 μM, flow cytometry MFI; read-out: Binding affinity with HLA-B1302. How it is done:
as §1

A further assay has as its target HLA-B4001 (Homo sapiens, UniProt P01889, A65T/A93T/A95T/D138N/D98Y/E176V/E69K/N87E/Q56L/Q94N/R180L/S121R/S35A/S48T/T167S/V36M/W171L/Y33H/Y91S). The experiment in a line: Competitive peptide binding assay, CIR-B4001. The note with it: HMy2.CIR-B4001 cells, reference Cy5-[…], class from inhibition at 5 and 15 μM, flow cytometry MFI; read-out: Binding affinity with HLA-B4001. How it is done: as §1

A further assay concerns the target HLA-B4601 (Homo sapiens, UniProt P01889, A329T/A93R/C349S/D201E/E100V/E187L/E204Q/E69M/E70A/I90K/K202T/N87E/R155S/R180W/S121R/S35A/S48A/V306I/V36M/Y140S). The experiment in a line: Competitive peptide binding assay, CIR-B4601. The note with it: for IC50: HMy2.CIR-B4601 cells, reference Cy5-[…], class from inhibition at 5 and 15 μM, flow cytometry MFI, read-out: Binding affinity with HLA-B4601; for inhibition at 5 µM: read-out: Inhibition % of Cy5-reference peptide binding, CIR-B4601, 5μM peptide; for inhibition at 15 µM: read-out: Inhibition % of Cy5-reference peptide binding, CIR-B4601, 15μM peptide. How it is done: as §1

The target of the next assay is HLA-B1501 (Homo sapiens, UniProt P01889, A329T/A93T/A95T/C349S/D201E/D98Y/E187L/E204Q/E69M/E70A/K202T/N87E/Q94N/R155S/R180W/S121R/S35A/S48A/V306I/V36M/Y140S/Y91S). The experiment in a line: Competitive peptide binding assay, CIR-B1501. The note with it: HMy2.CIR-B1501 cells, reference Cy5-[…], class from inhibition at 5 and 15 μM, flow cytometry MFI; read-out: Binding affinity with HLA-B1501. How it is done: as §1

The next assay has as its target HLA-C0401 (Homo sapiens, UniProt P10321, A176E/A330V/A35S/A73E/C25G/C350S/D138N/D33S/E299K/L171W/L180R/L218V/M285V/M309V/M331V/N104K/P208H/Q277E/Q291P/R243W/R38W/S101N/S123F/S140F/S297R/S48A/T329A/T363A/V319A/V327M). The experiment in a line: Competitive peptide binding assay, CIR-C0401. The note with it: HMy2.CIR-C0401 cells, reference Cy5-[…], class from inhibition at 5 and 15 μM, flow cytometry MFI; read-out: Binding affinity with HLA-C0401. How it is done:
as §1

A further assay addresses HLA-C1402 (Homo sapiens, UniProt P10321, A176E/A330V/A35S/A97T/C350S/D114A/D33S/L171W/L180R/L218V/M285V/M309V/M331V/P208H/Q277E/Q291P/R121W/R243W/S123F/S297R/S48A/T329A/T363A/V319A). Nature of the assay: Competitive peptide binding assay, CIR-C1402. The note with it: HMy2.CIR-C1402 cells, reference Cy5-[…], class from inhibition at 5 and 15 μM, flow cytometry MFI; read-out: Binding affinity with HLA-C1402. How it is done: as §1

Another assay deals with HLA-C0102 (Homo sapiens, UniProt P10321, A176E/A330V/A35S/A97T/C350S/D114A/D33F/L171W/L180R/L218V/M285V/M309V/M331V/P208H/Q277E/Q291P/R121W/R243W/R30K/S123C/S140Y/S297R/T329A/T363A/V272M/V319A). Nature of the assay: Competitive peptide binding assay, CIR-C0102. The note with it: for IC50: HMy2.CIR-C0102 cells, reference Cy5-[…], class from inhibition at 5 and 15 μM, flow cytometry MFI, read-out: Binding affinity with HLA-C0102. How it is done:
as §1

Another assay deals with HLA-C0302 (Homo sapiens, UniProt P10321, A176E/A330V/A97T/C25G/C350S/D114A/D33Y/E197K/L127V/L171W/L218V/M285V/M309V/M331V/P208H/Q277E/Q291P/R243W/R45H/S123Y/S297R/S48A/T118I/T187L/T329A/T363A/V319A). The experiment in a line: Competitive peptide binding assay, CIR-C0302. The note with it: HMy2.CIR-C0302 cells, reference Cy5-[…], class from inhibition at 5 and 15 μM, flow cytometry MFI; read-out: Binding affinity with HLA-C0302. As to the method:
as §1

In the next assay the target is HLA-C0602 (Homo sapiens, UniProt P10321, A176E/A330V/C350S/L171W/L180W/L218V/M285V/M309V/M331V/N104K/P208H/Q277E/Q291P/R121W/S101N/S123Y/S297R/T329A/T363A/V319A/V328M). The experiment in a line: Competitive peptide binding assay, CIR-C0602.
In a further assay the target is HLA-C0702 (Homo sapiens, UniProt P10321). Nature of the assay: Competitive peptide binding assay, CIR-C0702.
Another assay has as its target HLA-B3501 (Homo sapiens, UniProt P01889, A329T/A93T/A95T/C349S/D201E/D98Y/E176V/E187L/E204Q/E69T/I218V/K202T/L119I/Q94N/R155S/R180L/S121R/S35A/S48A/T118I/V127L/V306I/V36M/Y140S/Y91F). Nature of the assay: Competitive peptide binding assay, CIR-B3501. The note with it: HMy2.CIR-B3501 cells, reference Cy5-[…], class from inhibition at 5 and 15 μM, flow cytometry MFI; read-out: Binding affinity with HLA-B3501. How it is done: as §1

The next assay has as its target HLA-B5801 (Homo sapiens, UniProt P01889, A329T/C349S/D201E/D98Y/E176V/E187L/E204Q/E69T/G107R/I218V/I90N/K202T/L105A/L119I/N104I/N87E/Q89R/Q94S/R106L/R155S/R180L/R86G/S101N/S121R/S35A/S48A/T118I/V127L/V306I/V36M/Y140S/Y91M). Nature of the assay: Competitive peptide binding assay, CIR-B5801. The note with it: HMy2.CIR-B5801 cells, reference Cy5-[…], class from inhibition at 5 and 15 μM, flow cytometry MFI; read-out: Binding affinity with HLA-B5801. How it is done:
as §1

Where [1] appears, read: read-out: Inhibition % of Cy5-reference peptide binding.

Take `CC(C)C[C@H](NC(=O)[C@H](CC(C)C)NC(=O)[C@H](CC(C)C)NC(=O)[C@H](CC(N)=O)NC(=O)[C@H](CO)NC(=O)[C@H](CS)NC(=O)[C@H](CCC(=O)O)NC(=O)[C@@H](N)[C@@H](C)O)C(=O)N[C@@H](CCC(N)=O)C(=O)N[C@@H](Cc1ccc(O)cc1)C(=O)O` [Epitope Y231] (H-TECSNLLLQY-OH; N-terminus and C-terminus assumed): the IC50 is over 15 µM on HLA-B1502; 5 to 15 µM on HLA-B1301; over 15 µM at HLA-B1302; over 15 µM on HLA-B4001; under 5 µM at HLA-B4601; over 15 µM on HLA-B1501. The inhibition (in general, how much of the control response was suppressed) at 5 µM on HLA-B4601 worked out at 73.8%. Moreover, the inhibition at 15 µM at HLA-B4601 came out at 89.3%.

`CC[C@H](C)[C@H](NC(=O)[C@@H](NC(=O)[C@@H](N)CO)[C@@H](C)CC)C(=O)N[C@@H](C)C(=O)N[C@@H](Cc1ccc(O)cc1)C(=O)N[C@H](C(=O)N[C@@H](CCSC)C(=O)N[C@@H](CO)C(=O)N[C@@H](CC(C)C)C(=O)O)[C@@H](C)O` [Epitope M86] (H-SIIAYTMSL-OH; N-terminus and C-terminus assumed): the IC50 at HLA-C0401 was 5 to 15 µM; at HLA-C1402 it was over 15 µM; on HLA-C0102 it was 5 to 15 µM; on HLA-C0302, over 15 µM.

`CC[C@H](C)[C@H](NC(=O)[C@@H]1CCCN1C(=O)[C@H](CCSC)NC(=O)[C@H](CC(C)C)NC(=O)[C@H](CC(C)C)NC(=O)[C@H](CO)NC(=O)[C@H](Cc1ccc(O)cc1)NC(=O)[C@@H](N)Cc1ccc(O)cc1)C(=O)N[C@@H](CC(C)C)C(=O)O` [Epitope M95]: the IC50 is 5 to 15 µM on HLA-C1402, 5 to 15 µM on HLA-C0102, over 15 µM on HLA-C0602 and over 15 µM at HLA-C0702.

With `CC[C@H](C)[C@H](NC(=O)[C@@H](NC(=O)[C@H](CC(C)C)NC(=O)[C@H](CC(N)=O)NC(=O)[C@H](Cc1c[nH]c2ccccc12)NC(=O)[C@H](CCC(N)=O)NC(=O)[C@H](CCC(=O)O)NC(=O)[C@@H](N)CC(C)C)C(C)C)C(=O)NCC(=O)O` [Epitope Y215] (H-LEQWNLVIG-OH; N-terminus and C-terminus assumed), the IC50 was over 15 µM at HLA-B3501; 5 to 15 µM at HLA-B1301; over 15 µM on HLA-B5801; 5 to 15 µM on HLA-B4001; 5 to 15 µM at HLA-B4601. For the same compound, at HLA-B4601, the inhibition at 5 µM turned out to be 47.2%. At HLA-B4601, the inhibition at 15 µM came to 87.3%.

For `CC[C@H](C)[C@H](NC(=O)[C@H](C)NC(=O)[C@H](C)NC(=O)[C@H](CC(N)=O)NC(=O)[C@H](CC(N)=O)NC(=O)[C@H](C)NC(=O)[C@@H]1CCCN1C(=O)[C@H](CC(N)=O)NC(=O)[C@H](CCCNC(=N)N)NC(=O)[C@@H](N)[C@@H](C)O)C(=O)O` [Epitope M117] (H-TRNPANNAAI-OH; N-terminus and C-terminus assumed), the IC50 at HLA-C1402 was over 15 µM; on HLA-C0102, over 15 µM; on HLA-C0602 it was under 5 µM; on HLA-C0702 it was under 5 µM. Further, the inhibition at 5 µM at HLA-C0102 (setting [1]) was determined as 21%.

In the case of `CC[C@H](C)[C@H](NC(=O)[C@@H](NC(=O)CNC(=O)[C@H](CC(N)=O)NC(=O)[C@H](CO)NC(=O)[C@H](CC(=O)O)NC(=O)[C@H](C)N)[C@@H](C)O)C(=O)N[C@H](C(=O)N[C@H](C(=O)O)C(C)C)[C@@H](C)O` [Epitope Y216] (H-ADSNGTITV-OH; N-terminus and C-terminus assumed), the IC50 on HLA-B3501 is over 15 µM; on HLA-B1301 it was over 15 µM; at HLA-B1302, over 15 µM; on HLA-B5801 it was 5 to 15 µM; at HLA-B4001, 5 to 15 µM; at HLA-B4601, over 15 µM.

As for `CC[C@H](C)[C@H](NC(=O)[C@H](CC(N)=O)NC(=O)[C@H](CC(=O)O)NC(=O)[C@H](CO)NC(=O)[C@H](CO)NC(=O)[C@@H](N)CO)C(=O)N[C@@H](C)C(=O)N[C@@H](CC(C)C)C(=O)N[C@@H](CC(C)C)C(=O)O` [Epitope M111] (H-SSSDNIALL-OH; N-terminus and C-terminus assumed), the IC50 on HLA-C0401 was under 5 µM; at HLA-C1402 it was over 15 µM; on HLA-C0102, over 15 µM; at HLA-C0602 it was 5 to 15 µM; at HLA-C0702 it was over 15 µM. The inhibition at 5 µM at HLA-C0102 (setting [1]) was found to be 30.9%. The inhibition at 15 µM on HLA-C0102 (setting [1]) was 47.1%.
